Measurements published in patent US20110135603A1, “INHIBITORS OF PHOSPHATIDYLINOSITOL 3-KINASE” (VERTEX PHARMACEUTICALS INCORPORATED, priority 2008, published 2011).
Where two headings read alike, the source gives them in different places.

Experiments:
[1] = Evaluation of Brain/Plasma Concentrations; type: in vivo; conditions: Sprague-Dawley rats; for concentration at 2 h: 10 mg/kg oral intragastric in 0.5% MC, two hours after administration; for Kp at 2 h: 10 mg/kg oral, two hours, average brain/plasma ratio based on data obtained for each animal
Protocol: Selected compounds of the invention were evaluated for their ability to cross the blood-brain barrier. Accordingly, a compound of the invention was administered to Sprague-Dawley rats [10 mg/kg as a 1 mg/mL 0.5% MC solution] via oral intragastric delivery. Two hours after compound administration, the rats were anaesthetized by intramuscular administration of a 2 mL/kg Ketamine/Rompun/Acepromazine cocktail and placed onto necropsy table. The abdominal cavity was then opened with a V-cut and 300 microliters of blood was drawn directly from left ventricle for plasma concentration analysis. The blood sample was stored on ice in a 1.5 mL Eppendorf tube (containing K2EDTA) and subsequently centrifuged for 2 minutes at 2000 rpm. After centrifugation, 110 microliters of plasma was transferred to a fresh tube and stored at −70° C. until analysis. The rat was perfused with cold saline (containing 50 IU of heparin) at 20 mL/min from an infusion pump through the left ventricle of the heart. Immediately after starting the perfusion, a small cut in the right atria was made so that heparinized saline would flow through the body. The perfusion was continued until the liver appeared pale in color (about 60 mL of cold saline). The brain was removed and placed on ice, blotted dry, weighed, placed in a tube, frozen with liquid nitrogen, and stored at −70° C. until further analysis was performed.
In order to determine compound concentration in the plasma, the blood sample was prepared by protein precipitation with addition of acetonitrile at a ratio of 1:4. After vortexing and centrifugation, the supernatant was analyzed by high performance liquid chromatography-tandem mass spectrometry in positive Atmospheric Pressure Chemical Ionization (APCI) ionization mode. The analysis was done using reverse-phase high performance liquid chromatography with a 5.0 μm Xterra C18 analytical column (2.1×50 mm). Mobile phase was consists of a mixture of 10 mM ammonium acetate and acetonitrile running in a 1.5 minutes linear gradient. Aliquots of the matrix were spiked with known concentrations of the compound of interest and an internal standard. Study samples were spiked with the internal standard alone. The calibration curve generally contains final concentrations in the control matrix of 1 to 5000 ng/mL. The calibration curve was analyzed and the instrument response (area counts for compound of interest/Area Counts for internal Standard) are used to generate a calibration curve. The instrument response for study samples were compared to the calibration curve and the concentration back-calculated from the curve.
In order to determine compound concentration in the brain, the brain sample was thawed to RT, and a 0.5 weight equivalent of water was added to the sample. The sample was then completely homogenized. Two to four volumes of acetonitrile were added to the brain homogenate, the homogenate mixed and the sample centrifuged to remove protein. Similar to the method used to obtain blood concentrations, an aliquot of the sample homogenate supernatant was injected onto an LC/MS/MS running a gradient suitable for detecting the compound of interest. The instrument response was compared to the instrument response from calibration samples of brain homogenate spiked with known concentrations of compound in order to determine the brain concentration.

PI3Kα = PI3Kα (Homo sapiens, UniProt P42336); assay: PI3K Inhibition Assay (33P-ATP, PI(4,5)P2 substrate), PI3Kα isoform; type: biochemical; conditions: 2 nM final enzyme, 3 μM ATP, 30 μM PI(4,5)P2; competitive tight binding Ki fit
PI3Kα, sequence (P42336 whole entry, species assumed, canonical isoform): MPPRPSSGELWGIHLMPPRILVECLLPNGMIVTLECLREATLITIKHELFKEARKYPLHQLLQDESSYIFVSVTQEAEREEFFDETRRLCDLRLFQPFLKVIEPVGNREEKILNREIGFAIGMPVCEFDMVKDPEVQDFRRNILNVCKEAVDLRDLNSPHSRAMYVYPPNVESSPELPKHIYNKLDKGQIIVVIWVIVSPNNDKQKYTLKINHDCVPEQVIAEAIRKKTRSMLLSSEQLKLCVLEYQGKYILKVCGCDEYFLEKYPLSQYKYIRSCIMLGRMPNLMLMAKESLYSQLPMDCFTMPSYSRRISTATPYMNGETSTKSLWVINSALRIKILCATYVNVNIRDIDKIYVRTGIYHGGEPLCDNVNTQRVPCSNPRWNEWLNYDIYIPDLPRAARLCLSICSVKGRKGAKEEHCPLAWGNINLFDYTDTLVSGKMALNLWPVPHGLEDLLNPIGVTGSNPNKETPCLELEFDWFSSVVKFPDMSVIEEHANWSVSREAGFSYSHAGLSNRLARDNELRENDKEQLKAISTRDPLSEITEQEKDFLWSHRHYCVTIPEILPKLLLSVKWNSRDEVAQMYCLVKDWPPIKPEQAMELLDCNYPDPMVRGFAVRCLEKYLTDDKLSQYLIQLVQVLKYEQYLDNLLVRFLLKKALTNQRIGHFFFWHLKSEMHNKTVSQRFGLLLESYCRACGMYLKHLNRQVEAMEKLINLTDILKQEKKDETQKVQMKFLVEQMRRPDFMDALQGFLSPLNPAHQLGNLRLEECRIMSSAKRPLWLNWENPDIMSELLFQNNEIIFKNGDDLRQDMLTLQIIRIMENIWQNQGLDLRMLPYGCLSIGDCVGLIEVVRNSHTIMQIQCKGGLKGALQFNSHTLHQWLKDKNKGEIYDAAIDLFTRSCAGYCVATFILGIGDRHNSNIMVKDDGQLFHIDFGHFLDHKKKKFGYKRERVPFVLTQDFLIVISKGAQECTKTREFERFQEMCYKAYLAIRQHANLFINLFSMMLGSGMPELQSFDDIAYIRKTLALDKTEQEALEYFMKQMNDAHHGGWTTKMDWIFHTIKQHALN
PI3Kα, sequence (P27986 whole entry partner, species assumed, canonical isoform): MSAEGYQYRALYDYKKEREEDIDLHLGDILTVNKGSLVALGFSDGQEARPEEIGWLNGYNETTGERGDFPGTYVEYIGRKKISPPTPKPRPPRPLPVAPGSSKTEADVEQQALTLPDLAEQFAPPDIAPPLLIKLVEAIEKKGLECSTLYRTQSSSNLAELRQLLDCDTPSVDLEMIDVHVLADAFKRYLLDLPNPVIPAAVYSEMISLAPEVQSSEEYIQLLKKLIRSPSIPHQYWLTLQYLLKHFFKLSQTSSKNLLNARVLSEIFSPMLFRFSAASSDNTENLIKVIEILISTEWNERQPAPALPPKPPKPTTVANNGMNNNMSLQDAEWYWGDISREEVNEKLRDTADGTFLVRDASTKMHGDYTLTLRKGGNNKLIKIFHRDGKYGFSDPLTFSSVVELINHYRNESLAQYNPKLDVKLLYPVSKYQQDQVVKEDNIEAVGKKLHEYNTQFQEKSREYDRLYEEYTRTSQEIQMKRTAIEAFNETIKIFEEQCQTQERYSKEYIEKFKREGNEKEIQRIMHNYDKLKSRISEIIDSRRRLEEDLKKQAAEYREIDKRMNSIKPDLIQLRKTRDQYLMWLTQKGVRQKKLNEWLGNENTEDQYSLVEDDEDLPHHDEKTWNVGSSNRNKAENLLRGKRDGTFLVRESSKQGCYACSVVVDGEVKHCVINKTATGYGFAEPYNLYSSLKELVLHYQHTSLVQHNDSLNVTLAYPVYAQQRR
Protocol: (§1) Using a Biomek FX from Beckman Coulter, 1.5 μL of each of ten 2.5-fold serial dilutions of a compound of the invention in 100% DMSO was added to an individual well (hereafter, “test well”) in a 96 well polystyrene plate [Corning, Costar Item No. 3697]. One test well also contained 1.5 μL of DMSO with no compound. […] Using a Titertek Multidrop, 50 μL of Reaction Mix [100 mM HEPES pH 7.5, 50 mM NaCl, 10 mM DTT, 0.2 mg/mL BSA, 60 μM phosphatidylinositol(4,5)bisphosphate diCl6 (PI(4,5)P2; Avanti Polar Lipids, Cat. No. 840046P) and PI3K isoform of interest (see Table 3 for isoform concentrations)] was added to each well. To initiate the reaction, 50 μL of ATP Mix [20 mM MgCl2, 6 μM ATP (100 μCi/μmole ^33P-ATP)] was added each well, followed by incubating the wells for 30 min. at 25° C. Final concentrations in each well were 50 mM HEPES 7.5, 10 mM MgCl2, 25 mM NaCl, 5 mM DTT, 0.1 mg/mL BSA, 30 μM PI(4,5)P2, 3 μM ATP, and the PI3K isoform of interest (see Table 3). Final compound concentrations in each well ranged from 10 μM to 1 nM.
(§2) After incubation, the reactions in each well were quenched by addition of 50 μL of stop solution [30% TCA/Water, 10 mM ATP]. Each quenched reaction mixture was then transferred to a 96 well glass fiber filter plate [Corning, Costar Item No. 3511]. The plate was vacuum-filtered and washed three times with 150 μL of 5% TCA/water in a modified Bio-Tek Instruments ELX-405 Auto Plate Washer. 50 μL of scintillation fluid was added to each well and the plate read on a Perkin-Elmer TopCount™ NXT liquid scintillation counter to obtain ^33P-counts representing inhibition values.
(§3) The value for the background well was subtracted from the value obtained for each test well and the data were fit to the competitive tight binding Ki equation described by Morrison and Stone, Comments Mol. Cell. Biophys. 2: 347-368, 1985.

PI3Kγ = PI3Kγ (Homo sapiens, UniProt P48736); assay: PI3K Inhibition Assay (33P-ATP, PI(4,5)P2 substrate), PI3Kγ isoform; type: biochemical; conditions: 2 nM final enzyme, 3 μM ATP, 30 μM PI(4,5)P2; competitive tight binding Ki fit
PI3Kγ, sequence (P48736 whole entry, species assumed, canonical isoform): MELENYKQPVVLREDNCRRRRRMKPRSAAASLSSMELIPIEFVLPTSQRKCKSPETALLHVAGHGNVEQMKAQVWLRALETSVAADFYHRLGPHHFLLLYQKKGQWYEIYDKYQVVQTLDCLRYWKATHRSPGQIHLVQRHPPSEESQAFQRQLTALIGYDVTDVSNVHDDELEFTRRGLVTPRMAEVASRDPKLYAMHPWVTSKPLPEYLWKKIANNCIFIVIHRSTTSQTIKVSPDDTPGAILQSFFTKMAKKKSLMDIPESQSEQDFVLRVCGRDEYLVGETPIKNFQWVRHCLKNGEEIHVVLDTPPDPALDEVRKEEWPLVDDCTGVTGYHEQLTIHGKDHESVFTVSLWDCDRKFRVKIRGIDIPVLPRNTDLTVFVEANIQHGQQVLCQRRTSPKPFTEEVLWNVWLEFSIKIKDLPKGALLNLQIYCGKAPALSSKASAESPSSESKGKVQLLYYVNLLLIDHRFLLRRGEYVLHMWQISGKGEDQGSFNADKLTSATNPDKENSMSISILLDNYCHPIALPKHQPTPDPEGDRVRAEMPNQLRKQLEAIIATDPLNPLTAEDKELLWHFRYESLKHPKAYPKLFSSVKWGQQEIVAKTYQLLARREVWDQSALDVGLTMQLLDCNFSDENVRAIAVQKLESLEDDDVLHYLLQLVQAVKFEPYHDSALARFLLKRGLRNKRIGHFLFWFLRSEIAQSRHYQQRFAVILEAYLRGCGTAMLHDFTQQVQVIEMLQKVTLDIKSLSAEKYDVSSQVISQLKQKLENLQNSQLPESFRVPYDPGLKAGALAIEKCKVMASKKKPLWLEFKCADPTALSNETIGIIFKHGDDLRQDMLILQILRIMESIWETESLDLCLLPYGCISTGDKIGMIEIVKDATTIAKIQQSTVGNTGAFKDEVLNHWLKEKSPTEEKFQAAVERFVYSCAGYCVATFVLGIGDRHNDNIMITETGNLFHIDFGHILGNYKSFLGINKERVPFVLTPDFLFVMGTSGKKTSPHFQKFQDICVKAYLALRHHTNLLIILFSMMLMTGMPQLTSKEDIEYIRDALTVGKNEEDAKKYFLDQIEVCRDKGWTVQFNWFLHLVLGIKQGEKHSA
Protocol: as §1, §2, §3

[2] = system: experimental autoimmune encephalomyelitis (EAE); assay: Experimental autoimmune encephalomyelitis (EAE) mouse model of multiple sclerosis; type: in vivo; conditions: prophylactic administration, contrasted with animals administered vehicle alone
Description: See, for example, Keszthelyi et al., Neurology, 1996, 47:1053-1059.

[3] = based on a density of rat plasma of 1.0 g/mL, read-out: Plasma Conc.
[4] = rat, brain, average of two or three animals, read-out: Brain Conc.

SMILES	concentration at 2 h [1, 3] [µg/mL]	concentration at 2 h [1, 4] [ng/g]	Kp at 2 h ([1]; rat)	Ki (PI3Kα) [µM]	Ki (PI3Kγ) [µM]	Effect on disease in EAE [2]
CC(C)OCCCNC(=O)Nc1nc2ccc(-c3cncc(C(F)(F)F)c3)cc2s1 [Compound 3, 1-(6-(5-(trifluoromethyl)pyridin-3-yl)benzo[d]thiazol-2-yl)-3-(3-isopropoxypropyl)urea]				0.1 to 4	0.01 to 0.1	
COCCCNC(=O)Nc1nc2ccc(-c3cncc(C(F)(F)F)c3)nc2s1 [Compound 10]	0.985	662	0.7	0.01 to 0.1	≤ 0.01	disease suppression
CCOCCCNC(=O)Nc1nc2ccc(-c3cncc(C(F)(F)F)c3)nc2s1 [Compound 11]	0.21	55	0.3	0.1 to 4	≤ 0.01	
CCNC(=O)Nc1nc2ccc(-c3cncc(C(F)(F)F)c3)nc2s1 [Compound 13]				0.01 to 0.1	≤ 0.01	

Now from value to molecule, other results behind:

concentration at 2 h [1, 3] [µg/mL]	concentration at 2 h [1, 4] [ng/g]	Kp at 2 h ([1]; rat)	Ki (PI3Kα) [µM]	Ki (PI3Kγ) [µM]	SMILES	Effect on disease in EAE [2]
0.197	157	0.8	0.1 to 4	0.01 to 0.1	CCCOCCNC(=O)Nc1nc2ccc(-c3cncc(C(F)(F)F)c3)nc2s1 [Compound 1, 1-(5-(5-(trifluoromethyl)pyridin-3-yl)thiazolo[5,4-b]pyridin-2-yl)-3-(2-propoxyethyl)urea]	
			0.1 to 4	0.01 to 0.1	CCCOCCCNC(=O)Nc1nc2ccc(-c3cncc(C(F)(F)F)c3)nc2s1 [Compound 2]	
